Results: patent publication US11992490B2, “Use of JAK1 inhibitors for the treatment of cutaneous lupus erythematosus and Lichen planus (LP)” (Incyte Corporation, priority 2019, dated 2024)

Legend:
[1] = target: human JAK1 (a.a. 837-1142) (Homo sapiens, UniProt P23458); assay: In vitro JAK kinase assay (HTRF), JAK1; format: biochemical; conditions: 1 mM ATP
[2] = target: human JAK2 (a.a. 828-1132) (Homo sapiens (Human), UniProt O60674); assay: In vitro JAK kinase assay (HTRF), JAK2; format: biochemical; conditions: JAK2/JAK1 IC50 ratio, 1 mM ATP
Sequence of human JAK2 (a.a. 828-1132) (O60674 828-1132): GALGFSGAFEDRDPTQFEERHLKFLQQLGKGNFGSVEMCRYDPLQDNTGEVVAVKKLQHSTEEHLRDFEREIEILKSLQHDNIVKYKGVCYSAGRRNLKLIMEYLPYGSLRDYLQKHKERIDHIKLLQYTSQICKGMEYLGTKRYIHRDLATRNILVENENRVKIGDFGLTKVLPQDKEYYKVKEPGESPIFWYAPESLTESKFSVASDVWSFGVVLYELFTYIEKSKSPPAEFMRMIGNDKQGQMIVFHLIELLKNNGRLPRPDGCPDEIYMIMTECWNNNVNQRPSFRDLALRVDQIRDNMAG

[3] = test system: JAK1-phosphorylation in HaCaT keratinocytes; assay: JAK1-phosphorylation (anti-pJAK1 immunofluorescence) in eNA-stimulated HaCaT; format: cell-based, human; conditions: inhibitor 1 μM
[4] = test system: CLE-typical genes in NHEK; assay: Gene expression (RNA sequencing, KEGG pathways) in eNA-stimulated NHEK; format: cell-based, human; conditions: for Count: number of genes >2-fold downregulated: NHEK
Method: To analyze the functional principle and effect of JAK inhibition, the following established in vitro models of CLE were used. Immortalized keratinocytes (HaCaT), were acquired from CLS Cell Lines Service GmbH, Eppelheim, Germany), normal human epidermal keratinocytes (NHEKs, FC-0025) and Human epidermis equivalents (epiCS, CS-1001) from CellSystems, Troisdorf, Germany. These cell lines were cultured according the manufactures protocols. Cultured keratinocytes were stimulated with endogenous nucleic acids (eNA, 1.25 μg/mL) isolated from unstimulated keratinocytes using the “Genomic DNA from tissue” kit (Machery-Nagel, Dueren, Germany). Lipofectamine 2000 (Invitrogen, Carlsbad, USA) functioned as a transfection reagent (2.5 μL/mL). […] All experiments were implemented in biological triplicates. Enzyme-linked immunosorbent assays for human CXCL10 (DY266-05 R&D systems) were performed using DuoSet Ancillary Reagent Kit 2 (DY008 R&D systems) according to the supplied protocol, measured by Synergy HT Multi-Detection Multiplate Reader (BioTek, Winooski, VT, USA) and read out with Gen5 software (version 1.11.5).
To investigate the efficacy of pharmacological JAK1 inhibition, in vitro analyses in three different CLE-models were performed (i) NHEK-cells, (ii) HaCaT-cells and (iii) 3D epidermis equivalents.

[5] = test system: TREX1−/− mice; assay: Topical treatment of CLE-like lesions in UV-stimulated lupus-prone TREX1-/- mice; format: in vivo, mouse; conditions: 1% topical, seven days
Text: TREX1^−/− mice (generated on C57BL/6J background; Cancer Research Institute, London, UK) were bred and maintained under specific pathogen-free conditions at the animal core facility of UKB Bonn (HET, Bonn, Germany). TREX1^−/− mice (n=8) were back-shaved and treated with 0.2% DNFB (1-Fluor-2,4-dinitrobenzol, Sigma Aldrich). 4 days later, UV-irradiation on 3 sequential days started with 450 mJ/cm^2 UVB for 115 seconds per day using UV801KL (Waldmann, Villingen-Schwenningen, Germany). For 7 days 1% INCB039110 or vehicle solved in DMSO and olive oil (50 μL per mouse) were applied topically. Every day photos of mice were taken and every 2 days mice were weighed.

[6] = test system: patients with systemic lupus erythematosus; conditions: cited from earlier work
[7] = test system: SLE patients; conditions: cited from earlier work

N#CCC1(n2cc(-c3ncnc4[nH]ccc34)cn2)CN(C2CCN(C(=O)c3ccnc(C(F)(F)F)c3F)CC2)C1 [Compound 1, {1-{1-[3-Fluoro-2-(trifluoromethyl)isonicotinoyl]piperidin-4-yl}-3-[4-(7H-pyrrolo[2,3-d]pyrimidin-4-yl)-1H-pyrazol-1-yl]azetidin-3-yl}acetonitrile]
IC50 [1]: < 10 nM | JAK2/JAK1 [2]: >10 | activation of JAK1 (JAK1-phosphorylation) [3]: significantly decreased | Count: number of genes >2-fold downregulated ([4]; Arachidonic acid metabolism hsa00590): 4 | Count: number of genes >2-fold downregulated ([4]; Chemokine signalling pathway hsa04062): 5 | Count: number of genes >2-fold downregulated ([4]; Cytokine-cytokine receptor interaction hsa04060): 9 | Count: number of genes >2-fold downregulated ([4]; Cytosolic DNA-sensing pathway hsa04623): 3 | Count: number of genes >2-fold downregulated ([4]; Ether lipid metabolism hsa00565): 3 | Count: number of genes >2-fold downregulated ([4]; Linoleic acid metabolism hsa00591): 3 | Count: number of genes >2-fold downregulated ([4]; Toll-like receptor signalling pathway hsa04620): 4 | Count: number of genes >2-fold downregulated ([4]; alpha-Linolenic acid metabolism hsa00592): 3 | downregulated expression of CLE-typical genes ([4]; eNA-stimulated NHEK, p<0.05): > 2 fold | histological features: epidermal thickness and infiltrating dermal immune cells [5]: significantly improved | lesional skin regarding erythema, induration, scaling and size [5]: continuously improved | lupus-skin-activity-score (adapted CLASI score) ([5]; compared to placebo-treated mice): significantly reduced

CCS(=O)(=O)N1CC(CC#N)(n2cc(-c3ncnc4[nH]ccc34)cn2)C1 [baricitinib]
efficacy in treatment of SLE ([6]; 2 mg or 4 mg once daily for 24 weeks, vs placebo): not effective | CLASI activity score ([6]; exploratory end point): no improvement

B1: anifrolumab: anti-IFNαβ-receptor antibody (antibody, chains of the INN, looked up)
heavy: EVQLVQSGAEVKKPGESLKISCKGSGYIFTNYWIAWVRQMPGKGLESMGIIYPGDSDIRYSPSFQGQVTISADKSITTAYLQWSSLKASDTAMYYCARHDIEGFDYWGRGTLVTVSSASTKGPSVFPLAPSSKSTSGGTAALGCLVKDYFPEPVTVSWNSGALTSGVHTFPAVLQSSGLYSLSSVVTVPSSSLGTQTYICNVNHKPSNTKVDKRVEPKSCDKTHTCPPCPAPEFEGGPSVFLFPPKPKDTLMISRTPEVTCVVVDVSHEDPEVKFNWYVDGVEVHNAKTKPREEQYNSTYRVVSVLTVLHQDWLNGKEYKCKVSNKALPASIEKTISKAKGQPREPQVYTLPPSREEMTKNQVSLTCLVKGFYPSDIAVEWESNGQPENNYKTTPPVLDSDGSFFLYSKLTVDKSRWQQGNVFSCSVMHEALHNHYTQKSLSLSPG
light: EIVLTQSPGTLSLSPGERATLSCRASQSVSSSFFAWYQQKPGQAPRLLIYGASSRATGIPDRLSGSGSGTDFTLTITRLEPEDFAVYYCQQYDSSAITFGQGTRLEIKRTVAAPSVFIFPPSDEQLKSGTASVVCLLNNFYPREAKVQWKVDNALQSGNSQESVTEQDSKDSTYSLSSTLTLSKADYEKHKVYACEVTHQGLSSPVTKSFNRGEC
CLASI skin score [7]: significantly reduced
